Measured values published in US8338420B1, “Treatment of Parkinson's disease and enhancement of dopamine signal using PDE 10 inhibitor” (Mitsubishi Tanabe Pharma Corporation, priority 2002, dated 2012).

Biological target: T1, PDE2 (Bos taurus, UniProt P14099)
T1 construct: tissue Tokyo Shibaura Zoki; host or cells: bovine adrenal gland, soluble fraction, ion-exchange fractions
T1 sequence (P14099 1-921): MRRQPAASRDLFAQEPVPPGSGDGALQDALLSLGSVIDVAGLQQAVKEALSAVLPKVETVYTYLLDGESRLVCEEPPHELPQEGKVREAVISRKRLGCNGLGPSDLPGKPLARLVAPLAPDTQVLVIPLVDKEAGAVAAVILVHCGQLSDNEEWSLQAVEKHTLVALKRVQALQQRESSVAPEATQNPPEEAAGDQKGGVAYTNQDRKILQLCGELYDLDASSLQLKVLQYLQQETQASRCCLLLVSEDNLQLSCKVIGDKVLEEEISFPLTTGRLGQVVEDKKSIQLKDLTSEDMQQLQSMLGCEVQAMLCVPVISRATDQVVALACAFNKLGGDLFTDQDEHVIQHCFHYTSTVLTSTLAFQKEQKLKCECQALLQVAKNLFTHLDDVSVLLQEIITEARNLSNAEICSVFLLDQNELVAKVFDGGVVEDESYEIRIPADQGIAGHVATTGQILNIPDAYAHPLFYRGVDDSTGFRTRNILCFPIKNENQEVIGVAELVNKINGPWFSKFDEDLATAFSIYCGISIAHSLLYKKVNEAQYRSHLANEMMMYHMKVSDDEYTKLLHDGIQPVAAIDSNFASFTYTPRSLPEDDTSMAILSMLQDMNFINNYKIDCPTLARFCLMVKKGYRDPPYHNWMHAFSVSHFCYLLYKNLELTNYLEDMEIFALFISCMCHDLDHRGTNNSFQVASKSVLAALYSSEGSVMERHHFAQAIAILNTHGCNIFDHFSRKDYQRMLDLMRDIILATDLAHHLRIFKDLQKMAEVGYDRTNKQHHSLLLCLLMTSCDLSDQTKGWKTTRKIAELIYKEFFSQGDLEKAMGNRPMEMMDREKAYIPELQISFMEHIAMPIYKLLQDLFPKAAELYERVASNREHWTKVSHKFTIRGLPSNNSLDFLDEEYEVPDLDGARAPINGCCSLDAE
Test: PDE assay, PDE2 enzyme solution from bovine adrenal gland
Format: biochemical, Japanese Black Cattle
Details: substrate about 12 nM [3H]-cGMP and 1 μM cGMP
Experimental: One adrenal gland of Japanese Black Cattle, purchased from Tokyo Shibaura Zoki, co., Ltd. was washed with 100 ml of ice-cold saline (0.9% sodium chloride) twice. Subsequently, the tissues were cut into about 1 gram, and it was frozen by liquid nitrogen. To about 2 g of this tissue sample was added 10 ml of an ice-cold homogenization buffer II (25 mM Tris-HCl, pH 7.5, 4 mM magnesium chloride, 0.5 mM EGTA, 2 mM dithiothreitol, 4 mM benzamidine, 0.1 mM phenylmethylsulfonyl fluoride), and the homogenate that was homogenized by Polytron homogenizer for 3 minutes was centrifuged at 8000 rpm, at 4° C. for 20 minutes, and the obtained supernatant was further centrifuged by an ultracentrifuge at 50000 rpm, at 4° C. for 60 minutes. The resultant supernatant was stored at 4° C.
This supernatant was applied to chromatography under the FPLC system, in the same manner as in Example 1 (1) above. […]
Subsequently, the eluted fractions were used as an enzyme solution for PDE assay, and cGMP-hydrolyzing activity was measured. Or, cAMP-hydrolyzing activity was measured for respective fractions, in the presence or absence of unlabeled cGMP. […]

SMILES: COc1ccc(-c2cc(N3CCCC3)nc(/C=C/c3nc(-n4ccnc4)c4ccccc4n3)n2)cc1OC [Compound A, 2-{(E)-2-[4-(1-imidazolyl)-quinazolin-2-yl]}ethenyl-4-(3,4-dimethoxy)phenyl-6-(pyrrolidin-1-yl)pyrimidine]
- IC50: > 1000 nM
